Results as given in paper PMC10590383, “Repurposing conformational changes in ANL superfamily enzymes to rapidly generate biosensors for organic and amino acids” (Nature Communications, 2023).

Assay: pH stability of […]-Phe3 (dose–response and fluorescence intensity at pH 6.5, 7.5, 8.5)
Type: biochemical
Conditions: for fluorescence response of GECFINDER, AVE of 3 repeats: Supplementary Fig. 3 e; for fluorescence intensity, AVE of 3 repeats: Supplementary Fig. 3 d, 100 μM Phe
From the text: As cpEGFP is sensitive to pH, we conducted a dose-response curve and fluorescence intensity analysis of […]-Phe3 at varying pH levels. […] In addition, we expanded the range of ligand-binding domains (LBDs) applicable to […] and attempted optimization of insertion sites for cpEGFP with limited success. Please refer to Supplemental Note 1 for detailed information.
The study conducted dose–response curve, substrate specificity, and fluorescent spectrum analyses in 100-mM Tris buffer (pH = 7.5), while pH stability experiments were performed in 100-mM Tris buffer at three different pH values (6.5, 7.5, and 8.5) at room temperature. […] protein at a concentration of 0.75 μM, various small molecule concentrations, 1 mM ATP, and 2.5 mM MgCl2 were used in the experiments. Fluorescent signals were detected using a Microplate Reader (Synergy H4, Bio Tek) at an excitation/emission wavelength of 460 nm/510 nm or 480 nm/510 nm. The dose-response curve was determined immediately after the addition of the analyte. The total duration of the measurement was 15 min, with readings taken at one-minute intervals. The dose-response curve was plotted using the fluorescence values obtained after achieving stability in the fluorescence signal. The dose-response curves were fitted using the logistic model LOGISTIC5 available in Origin 2021, which could provide a more adequate fit to asymmetric dose-response data[62],[63]. Excitation spectra were scanned from 300 to 540 nm with a step size of 5 nm, and the emission wavelength was set to 560 nm. Emission spectra were scanned from 470 to 700 nm with a step size of 5 nm, and the excitation wavelength was set to 450 nm. The thermal stability of […] was analyzed using the UNcle multifunctional protein stability analysis system. Measurements were performed in 20 mM MOPS buffer with 2 mM DTT at a sample concentration of 1 mg/mL. Absolute fluorescence quantum yields were measured using an absolute photoluminescence quantum yield spectrometer (FS5, Edinburgh). […]
β-P he. […]
All data shown are mean s ± S.D . (n =3 biologically inde pendent samples). Source
data are provided as a Source Data file.
(also on this page, place not known: 10210-210-3 Normalized Normalized […]-Leu3 10-4 10⁵ 2.5 Normalized ΔF/F 0 AlaAr As p As […]Pr SerThr ValTrpTyr Ph R-β-Ph β-Ph e 2.5Normalized ΔF/F 0 Substrate 100μM 100μM 100μM Fluorescence ...K ...N GrsA-PheA PpsA-GluA -QSVF- 10⁰ 10⁵ […]-Ile(VF-QS) Normalized ΔF/F 0 (μM) 0mM 0.75mM His 12×10³Intensity f g Substrate specificity engineering insertion optimization […]. Dose–response purified […]-Leu2 increasing concentrations normalized ΔF/F0 […]-SβF acids R/S- β-Phe. concentrations substrates Fluorescence purified […]-Phe3 different control fluorescence substrate added. response purified […]-Phe3 increasing concentrations different junction domain Dose–response curve purified […]-Ile (VF-QS) increasing concentrations Normalized ΔF/F0 increased after excitation).h, Difference fluorescence intensity […]-His (VF-QS) presence histidine compared control means S.D. (n=3 independent) […]

SMILES: N[C@@H](Cc1ccccc1)C(=O)O [Phe]
- fluorescence response of GECFINDER, AVE of 3 repeats (pH6.5, Phe 0.001 μM): -5.5222e-17
- fluorescence response of GECFINDER, AVE of 3 repeats (pH6.5, Phe 0.005 μM): 0.01941
- fluorescence response of GECFINDER, AVE of 3 repeats (pH6.5, Phe 0.01 μM): 0.04517
- fluorescence response of GECFINDER, AVE of 3 repeats (pH6.5, Phe 0.05 μM): 0.1259
- fluorescence response of GECFINDER, AVE of 3 repeats (pH6.5, Phe 0.1 μM): 0.2201
- fluorescence response of GECFINDER, AVE of 3 repeats (pH6.5, Phe 0.5 μM): 0.7727
- fluorescence response of GECFINDER, AVE of 3 repeats (pH6.5, Phe 1 μM): 1.198
- fluorescence response of GECFINDER, AVE of 3 repeats (pH6.5, Phe 5 μM): 2.235
- fluorescence response of GECFINDER, AVE of 3 repeats (pH6.5, Phe 10 μM): 2.5727
- fluorescence response of GECFINDER, AVE of 3 repeats (pH6.5, Phe 25 μM): 2.94
- fluorescence response of GECFINDER, AVE of 3 repeats (pH6.5, Phe 50 μM): 3.093
- fluorescence response of GECFINDER, AVE of 3 repeats (pH6.5, Phe 100 μM): 3.166
- fluorescence response of GECFINDER, AVE of 3 repeats (pH7.5, Phe 0.001 μM): 0
- fluorescence response of GECFINDER, AVE of 3 repeats (pH7.5, Phe 0.005 μM): 0.04668
- fluorescence response of GECFINDER, AVE of 3 repeats (pH7.5, Phe 0.01 μM): 0.05356
- fluorescence response of GECFINDER, AVE of 3 repeats (pH7.5, Phe 0.05 μM): 0.1413
- fluorescence response of GECFINDER, AVE of 3 repeats (pH7.5, Phe 0.1 μM): 0.2634
- fluorescence response of GECFINDER, AVE of 3 repeats (pH7.5, Phe 0.5 μM): 0.9215
- fluorescence response of GECFINDER, AVE of 3 repeats (pH7.5, Phe 1 μM): 1.384
- fluorescence response of GECFINDER, AVE of 3 repeats (pH7.5, Phe 5 μM): 2.412
- fluorescence response of GECFINDER, AVE of 3 repeats (pH7.5, Phe 10 μM): 2.788
- fluorescence response of GECFINDER, AVE of 3 repeats (pH7.5, Phe 25 μM): 3.108
- fluorescence response of GECFINDER, AVE of 3 repeats (pH7.5, Phe 50 μM): 3.25
- fluorescence response of GECFINDER, AVE of 3 repeats (pH7.5, Phe 100 μM): 3.385
- fluorescence response of GECFINDER, AVE of 3 repeats (pH8.5, Phe 0.001 μM): 5.725e-17
- fluorescence response of GECFINDER, AVE of 3 repeats (pH8.5, Phe 0.005 μM): 0.003084
- fluorescence response of GECFINDER, AVE of 3 repeats (pH8.5, Phe 0.01 μM): 0.009629
- fluorescence response of GECFINDER, AVE of 3 repeats (pH8.5, Phe 0.05 μM): 0.04022
- fluorescence response of GECFINDER, AVE of 3 repeats (pH8.5, Phe 0.1 μM): 0.0788
- fluorescence response of GECFINDER, AVE of 3 repeats (pH8.5, Phe 0.5 μM): 0.5458
- fluorescence response of GECFINDER, AVE of 3 repeats (pH8.5, Phe 1 μM): 0.9288
- fluorescence response of GECFINDER, AVE of 3 repeats (pH8.5, Phe 5 μM): 1.837
- fluorescence response of GECFINDER, AVE of 3 repeats (pH8.5, Phe 10 μM): 2.121
- fluorescence response of GECFINDER, AVE of 3 repeats (pH8.5, Phe 25 μM): 2.449
- fluorescence response of GECFINDER, AVE of 3 repeats (pH8.5, Phe 50 μM): 2.595
- fluorescence response of GECFINDER, AVE of 3 repeats (pH8.5, Phe 100 μM): 2.661
- fluorescence intensity, AVE of 3 repeats (pH6.5): 11375
- fluorescence intensity, AVE of 3 repeats (pH7.5): 18474.7
- fluorescence intensity, AVE of 3 repeats (pH8.5): 19389
